Measurements published in paper PMC9917735, “Optimization of the Hemolysis Assay for the Assessment of Cytotoxicity” (International Journal of Molecular Sciences, 2023).
In brackets after ≈: the same amount, converted by molar mass. Read-outs that look alike come from different tables or passages of the source. Residues, ends and D or L forms follow the SMILES beside them. *: point of attachment. Hexanoyl = CCCCCC(=O)*

Key:
human whole blood = conditions: for Calculated hemolysis ratio: human whole blood, peptides 100 μM, 60 min 37 °C, neg. PBS, 3 x 2 replicates
rabbit erythrocytes = conditions: AMPs 100 μM, 1 hour 37 °C, pos. 10% Triton X-100, neg. PBS, 3 x 2 replicates
Source text: (§1) Cytotoxicity studies are important during characterization of novel compounds or materials intended for interactions within human biological systems in vivo. Evaluation of the extent to which the compound induces disruption of the membrane of erythrocytes (red blood cells), thereby causing release of cellular content, often constitutes an initial step in such cytotoxicity assessments. The assay used in this context is generally referred to as the hemolysis assay, which has the advantages of being cheap, accessible, and simple to perform. Blood is drawn from a human or an animal, and next, the washed erythrocytes are incubated together with the compound or material under investigation. If the compound causes hemolysis, hemoglobin (along with other cellular constituents) will be released into the supernatant.
(§2) Blood from mice, rats, and rabbits was provided by the Department of Comparative Medicine at Oslo University Hospital (Marianne Aannestad). For mice and rats, the blood was collected from the heart by using 25 G and 21 G needles, respectively, whereas for rabbits, the blood was collected by free bleed through the ear using a yellow neoflon (24 G). All animals were wild type and anesthetized prior to the procedure.
(§3) All blood was collected in Lithium Heparin tubes 4 mL (Greiner Bio-One, Kremsmünster, Austria) or Coagulation sodium citrate 3.2% tubes 3 mL (Greiner Bio-One).
(§4) AMP 2 contained an N-terminal hexanoic acid moiety, whereas all peptides contained amidated C-termini. These three peptides were synthesized by Genscript Inc. (Piscataway, NJ, USA), and stock solutions of 1 mg/mL were made from the purchased powders. […] All peptides were diluted to yield a 100 μM final concentration in the hemolysis assays.
(§5) Triton X-100 (T8787) and Tween-20 (P2287) detergents were purchased from Sigma Aldrich and diluted to obtain 10% stock solutions by weighing (w/v). A sodium Dodecyl Sulfate (SDS) 10% solution was purchased from Invitrogen (Waltham, MA, USA, 15553027). All subsequent dilutions annotated in figures were made from these stocks.
(§6) As soon as possible after phlebotomy, the blood samples were centrifuged at 1700× g for 5 min. The supernatant was removed by aspiration and 2 mL of PBS pH 7 was added. The washing step was repeated three times or until the supernatant was clear. After final aspiration, the remaining pellet was diluted 1:100 in PBS pH 7 to obtain a 1% erythrocyte suspension (or 1:100, 1:50, and 1:20 for assays testing the effect of erythrocyte concentration). For experiments using whole blood, the washing steps were not performed, but downstream experimentation was identical. For experiments performed with 96-well plates, 50 μL of test compound, water, or detergent were mixed with 50 μL of blood sample (1% erythrocyte suspension or whole blood). For experiments using larger volumes, 250 μL of test compound, water, or detergent were mixed with 250 μL blood sample in an Eppendorf tube. Samples were subsequently incubated at 37 °C for 60 min (or 15, 30, 60, 90, or 120 min for assays evaluating the effect of incubation time). After incubation, the plates/tubes were centrifuged at 1700× g for 5 min, and then 50 μL of the supernatants were transferred to transparent, flat-bottom 96-well plates (Anicrin, A013418). Finally, absorption was measured at 405, 530, and 570 nm in a Victor Nivo Multimode microplate reader (Perkin Elmer, Waltham, MA, USA).

rabbit whole blood = conditions: for Hemolysis ratio: rabbit whole blood, AMPs 100 μM, 1 hour 37 °C, 3 x 2 replicates
Source text: as §1, §2, §3, §4, §5, §6

rat erythrocytes = conditions: AMPs 100 μM, 1 hour 37 °C, pos. 10% Triton X-100, neg. PBS, 3 x 2 replicates
Source text: as §1, §2, §3, §4, §5, §6

mouse erythrocytes = conditions: AMPs 100 μM, 1 hour 37 °C, pos. 10% Triton X-100, neg. PBS, 3 x 2 replicates
Source text: as §1, §2, §3, §4, §5, §6

E. coli = conditions: E. coli
[1] = tested on: washed human erythrocytes; experiment: Flow cytometry of treated erythrocytes with live/dead amine-reactive stain; assay type: cell-based; conditions: washed human erythrocytes treated 60 minutes, AMPs 100 μM, amine-reactive dye 488, flow cytometry 533/30 nm
Experimental: Briefly, a 1% washed erythrocyte solution was diluted to ~10^5 cells/mL and 0.4% Trypan blue (1:1 ratio) was added before 10 μL of the stained cell suspension was added to the Countess cell counting chamber slide. After a 30 s incubation, the slide was inserted into the instrument for automatic cell counting.
The Countess II automated cell counter (see above) was used to adjust the negative control sample to ~10^5 cells/mL and to subsequently dilute all samples by the same factor. Then, 0.5 μL of live/dead amine-reactive dye 488 (Fisher Scientific, Waltham, MA, USA) was added to 0.5 mL cell suspension and incubated for 30 min protected from light. Subsequently, the samples were washed twice with PBS pH 7 containing 1% bovine serum albumin (BSA), and finally resuspended in PBS pH 7 with 1% BSA. Cells were next counted, and the fluorescence measured using the 533/30 nm filter in an Accuri C6 flow cytometer (BD Biosciences, Franklin Lakes, NJ, USA).

[2] = tested on: washed human erythrocytes; experiment: Hemolysis assay, washed human erythrocytes

SMILES: CCCCCC(=O)N[C@@H](CCSC)C(=O)N[C@@H](CCCCN)C(=O)N[C@@H](CCCNC(=N)N)C(=O)N[C@@H](CCCCN)C(=O)N[C@@H](CCCCN)C(=O)N[C@@H](CCCCN)C(=O)N[C@H](C(=O)N[C@@H](CC(C)C)C(=O)N[C@H](C(=O)N[C@@H](CCCCN)C(=O)N[C@@H](CCCCN)C(=O)N[C@H](C(=O)N[C@@H](CC(C)C)C(=O)N[C@@H](CCCCN)C(=O)N[C@@H](CC(C)C)C(=O)N[C@@H](CCCCN)C(=O)N[C@@H](CO)C(=O)N[C@@H](CO)C(=O)N[C@@H](C)C(=O)N[C@@H](Cc1ccc(O)cc1)C(N)=O)C(C)C)[C@@H](C)CC)[C@@H](C)CC [AMP 2] (Hexanoyl-MKRKKKILIKKVLKLKSSAY-NH2)
- Calculated hemolysis ratio (human whole blood; OD 405 nm (signal saturated), pos. 10% SDS): 0.4 ± 0.2%
- Calculated hemolysis ratio (human whole blood; OD 530 nm, pos. 10% SDS): 0.2%
- Calculated hemolysis ratio (human whole blood; OD 570 nm, pos. 10% Triton X-100 (table title; text says 10% SDS)): −0.1%
- Fold reduction in HR in human whole blood in comparison with washed erythrocytes measured at 405 nm (human whole blood; whole blood HR with 10% SDS as positive control (Table 5) vs washed erythrocytes (Table 6), 100 μM): > 41 fold
- Hemolysis ratio (rabbit erythrocytes; Table S4: washed rabbit erythrocytes, OD 405 nm): 4.6 +/- 0.7%
- Hemolysis ratio (rabbit erythrocytes; washed rabbit erythrocytes, OD 530 nm): 1.7 +/- 3.6%
- Hemolysis ratio (rabbit erythrocytes; washed rabbit erythrocytes, OD 570 nm): 2.2 +/- 1.4%
- Fold decrease of hemolytic effect in rabbit whole blood vs washed rabbit erythrocytes (rabbit whole blood; cf. Tables S3 and S4, 100 μM): 23 fold
- Hemolysis ratio (rabbit whole blood; OD 405 nm, neg. PBS): 0.6 +/- 3.2%
- Hemolysis ratio (rabbit whole blood; OD 530 nm, pos. 10% SDS, neg. PBS): 0.2 +/- 0.6%
- Hemolysis ratio (rabbit whole blood; OD 570 nm, pos. 10% Triton X-100, neg. PBS): 0.2 +/- 0.5%
- Hemolysis ratio (rat erythrocytes; Table S4: washed rat erythrocytes, OD 405 nm): 5.2 +/- 1.9%
- Hemolysis ratio (rat erythrocytes; washed rat erythrocytes, OD 530 nm): 2.6 +/- 5.7%
- Hemolysis ratio (rat erythrocytes; washed rat erythrocytes, OD 570 nm): 3.3 +/- 3%
- Hemolysis ratio (mouse erythrocytes; Table S4: washed mouse erythrocytes, OD 405 nm): 0.1 +/- 2%
- Hemolysis ratio (mouse erythrocytes; washed mouse erythrocytes, OD 530 nm): -11.8 +/- 8%
- Hemolysis ratio (mouse erythrocytes; washed mouse erythrocytes, OD 570 nm): -2.7 +/- 1.9%
- Minimum inhibitory concentration (E. coli) (E. coli): 4 µM (≈ 10 µg/mL)
- Fluorescence intensity per cell of remaining intact cells (live/dead stain) [1]: low fluorescence
- Calculated hemolysis ratio ([2]; 1% washed human erythrocytes, OD 530 nm, peptides 100 μM, 60 min 37 °C, pos. 10% Triton X-100, neg. PBS, 3 x 2 replicates): 5.2 ± 3%
- Calculated hemolysis ratio ([2]; 1% washed human erythrocytes, OD 570 nm, peptides 100 μM, 60 min 37 °C, pos. 10% Triton X-100, neg. PBS, 3 x 2 replicates): 4.8 ± 6.6%
- Calculated Hemolysis (%) ([2]; 2% pooled human erythrocytes, AMPs 100 µM, 60 min 37 °C, 405 nm, pos. 10% Triton X-100, neg. PBS, 3 x 2 replicates): 5.6 ± 0.8%
- Calculated Hemolysis (%) ([2]; 5% pooled human erythrocytes, AMPs 100 µM, 60 min 37 °C, 405 nm, pos. 10% Triton X-100, neg. PBS, 3 x 2 replicates): 5.0 ± 3.3%
- Calculated hemolysis ratio ([2]; Table 1: 1% human erythrocytes, 100 µM, 60 min 37 °C, OD 405 nm, pos. 10% Triton X-100, neg. PBS, mean ± SD, 3 experimental x 2 technical replicates): 8.5 ± 1.4%
- Calculated hemolysis ratio ([2]; Table 2: pooled blood from all 10 individuals, 1% erythrocytes, AMPs 100 µM, 60 min 37 °C, 405 nm, pos. 10% Triton X, neg. PBS, 3 x 2 replicates): 12.4 ± 3.1%
- Calculated Hemolysis (%) ([2]; Table 3: 1% pooled human erythrocytes, AMPs 100 µM, 60 min 37 °C, 405 nm, pos. 10% Triton X-100, neg. PBS, 3 x 2 replicates): 12.4 ± 3.1%
- Calculated hemolysis ratio ([2]; Table 4: incubation 60 min, 37 °C, 1% human erythrocytes, AMPs 100 µM, 405 nm, pos. 10% Triton X-100, neg. PBS, 3 biological x 2 technical replicates): 7.8 ± 1.3%
- Calculated hemolysis ratio ([2]; Table 6: 1% washed human erythrocytes, OD 405 nm, peptides 100 μM, 60 min 37 °C, pos. 10% Triton X-100, neg. PBS, 3 x 2 replicates): 8.2 ± 1.4%
- Calculated hemolysis ratio ([2]; human individual # 1, 1% erythrocytes, AMPs 100 µM, 60 min 37 °C, 405 nm, pos. 10% Triton X, neg. PBS, 3 x 2 replicates): 8.2 ± 1.3%
- Calculated hemolysis ratio ([2]; human individual # 2, 1% erythrocytes, AMPs 100 µM, 60 min 37 °C, 405 nm, pos. 10% Triton X, neg. PBS, 3 x 2 replicates): 10 ± 0.7%
- Calculated hemolysis ratio ([2]; human individual # 3, 1% erythrocytes, AMPs 100 µM, 60 min 37 °C, 405 nm, pos. 10% Triton X, neg. PBS, 3 x 2 replicates): 9.8 ± 0.8%
- Calculated hemolysis ratio ([2]; human individual # 4, 1% erythrocytes, AMPs 100 µM, 60 min 37 °C, 405 nm, pos. 10% Triton X, neg. PBS, 3 x 2 replicates): 10.4 ± 0.9%
- Calculated hemolysis ratio ([2]; human individual # 5, 1% erythrocytes, AMPs 100 µM, 60 min 37 °C, 405 nm, pos. 10% Triton X, neg. PBS, 3 x 2 replicates): 11 ± 1%
- Calculated hemolysis ratio ([2]; human individual # 6, 1% erythrocytes, AMPs 100 µM, 60 min 37 °C, 405 nm, pos. 10% Triton X, neg. PBS, 3 x 2 replicates): 6.4 ± 0.7%
- Calculated hemolysis ratio ([2]; human individual # 7, 1% erythrocytes, AMPs 100 µM, 60 min 37 °C, 405 nm, pos. 10% Triton X, neg. PBS, 3 x 2 replicates): 8.9 ± 0.8%
- Calculated hemolysis ratio ([2]; human individual # 8, 1% erythrocytes, AMPs 100 µM, 60 min 37 °C, 405 nm, pos. 10% Triton X, neg. PBS, 3 x 2 replicates): 9.1 ± 1.1%
- Calculated hemolysis ratio ([2]; human individual # 9, 1% erythrocytes, AMPs 100 µM, 60 min 37 °C, 405 nm, pos. 10% Triton X, neg. PBS, 3 x 2 replicates): 9.6 ± 1%
- Calculated hemolysis ratio ([2]; human individual # 10, 1% erythrocytes, AMPs 100 µM, 60 min 37 °C, 405 nm, pos. 10% Triton X, neg. PBS, 3 x 2 replicates): 9.8 ± 0.7%
- Calculated hemolysis ratio ([2]; incubated in polypropylene tubes, 1% washed human erythrocytes, peptides 100 μM, 60 min 37 °C, 405 nm, pos. 10% Triton X-100, neg. PBS, 3 x 2 replicates): 8.2 ± 2.6%
- Calculated hemolysis ratio ([2]; incubated in polystyrene tubes, 1% washed human erythrocytes, peptides 100 μM, 60 min 37 °C, 405 nm, pos. 10% Triton X-100, neg. PBS, 3 x 2 replicates): 9.7 ± 3.4%
- Calculated hemolysis ratio ([2]; incubation 15 min, 37 °C, 1% human erythrocytes, AMPs 100 µM, 405 nm, pos. 10% Triton X-100, neg. PBS, 3 biological x 2 technical replicates): 7.8 ± 1.1%
- Calculated hemolysis ratio ([2]; incubation 30 min, 37 °C, 1% human erythrocytes, AMPs 100 µM, 405 nm, pos. 10% Triton X-100, neg. PBS, 3 biological x 2 technical replicates): 7.4 ± 1.2%
- Calculated hemolysis ratio ([2]; incubation 90 min, 37 °C, 1% human erythrocytes, AMPs 100 µM, 405 nm, pos. 10% Triton X-100, neg. PBS, 3 biological x 2 technical replicates): 8 ± 0.8%
- Calculated hemolysis ratio ([2]; incubation 120 min, 37 °C, 1% human erythrocytes, AMPs 100 µM, 405 nm, pos. 10% Triton X-100, neg. PBS, 3 biological x 2 technical replicates): 8.6 ± 1.4%
- Observed hemolytic properties (qualitative) ([2]; reason for choice of the AMPs): low
- Calculated hemolysis ratio ([2]; total incubation volume 100 μL, 1% washed human erythrocytes, peptides 100 μM, 60 min 37 °C, 405 nm, pos. 10% Triton X-100, neg. PBS, 3 x 2 replicates): 9.7 ± 3.4%
- Calculated hemolysis ratio ([2]; total incubation volume 500 μL, 1% washed human erythrocytes, peptides 100 μM, 60 min 37 °C, 405 nm, pos. 10% Triton X-100, neg. PBS, 3 x 2 replicates): 8.8 ± 3.9%
